In brackets after ≈: the same amount, converted by molar mass. Bridge positions count the residues as written; N and C are the ends. Square brackets hold non-standard residues; d marks the D form. Peptide text beside a SMILES is read from it. I, II: the chains in the order shown. Ahx = NCCCCCC(=O)O
Assays:
Format in all cases: cell-based
[1] = test system: Enterococcus faecium clinical isolate 1,040
Description: (§1) For the clinical isolates, we used 20 different isolates from the Public Health Reference Laboratory collection of the Secretaría de Salud del Distrito (SdSD; Bogotá, Colombia). The samples were collected from June to December 2016. For each isolate, the patient parameters (age, gender and location) and the culture site were recorded for epidemiologic monitoring (Table 1). All isolates had been previously tested for antibiotic sensitivity at the Public Health Microbiology Laboratory using either the Phoenix™ system (Gram-positive) or the VITEK 2 system (Gram-negative).
(§2) We screened all five peptides against the ATCC reference strains and the clinical isolates according to Method M7-A7 of the National Committee for Clinical Laboratory Standards (CLSI, [2007]). The MIC50 and MBC values were determined using a broth microdilution and growth inhibition method previously reported by Leon-Calvijo et al. ([2015]), with some modifications (Wiegand et al., [2008]). Briefly, the MIC50 experiments comprised a liquid-inhibition growth assay in a sterile, untreated, 96-well flat-bottom tissue culture plate. The bacteria were cultured overnight n Mueller Hinton agar; three colonies were transferred to 8 mL of Mueller Hilton broth and incubated at 37°C until the mid-exponential phase of growth. The turbidity of the cultures was measured and adjusted spectrophotometrically to a McFarland standard of 0.5, and then diluted to a final concentration of 5 × 10^7 colony forming units (CFU) per well. Stock solutions (2,000 μM) of each test peptide were serially diluted to final concentrations (per well) of 200, 100, 50, 25, 12.5, and 6.25 μM. Each concentration was evaluated in duplicate and each assay was performed in triplicate.
(§3) Wells containing Mueller Hilton broth with bacterial inoculum only served as bacterial-growth controls. Additional controls included Mueller Hilton broth alone (as blank) and Mueller Hilton broth with ciprofloxacin (2 μg/mL; as positive control). The microplate was incubated for 24 h at 37°C, and growth inhibition was measured by monitoring the optical density at 620 nm (OD620). The MIC50 was defined as the peptide concentration at which bacterial growth was inhibited by 50%.
(§4) To determine the MBC, an aliquot from each well of the MIC50 assay was spread onto Mueller Hilton agar. After 18 h at 37°C, the concentration that inhibited bacterial growth was determined. Each of these tests was performed four times. MBC was defined as the lowest concentration of peptide at which the number of bacteria was reduced by 99.9% in vitro (European Committee for Antimicrobial Susceptibility Testing, [2000]).

[2] = test system: Enterococcus faecium clinical isolate 1,225
Description: as §1, §2, §3, §4

[3] = test system: Enterococcus faecium clinical isolate 1,461
Description: as §1, §2, §3, §4

[4] = test system: Enterococcus faecium clinical isolate 1,462
Description: as §1, §2, §3, §4

[5] = test system: Enterococcus faecium clinical isolate 550
Description: as §1, §2, §3, §4

[6] = test system: Klebsiella pneumoniae clinical isolate 50,181
Description: as §1, §2, §3, §4

[7] = test system: Klebsiella pneumoniae clinical isolate 50,424
Description: as §1, §2, §3, §4

[8] = test system: Klebsiella pneumoniae clinical isolate 51,009
Description: as §1, §2, §3, §4

[9] = test system: Klebsiella pneumoniae clinical isolate 51,048
Description: as §1, §2, §3, §4

[10] = test system: Pseudomonas aeruginosa clinical isolate 47,661
Description: as §1, §2, §3, §4

[11] = test system: Pseudomonas aeruginosa clinical isolate 48,221
Description: as §1, §2, §3, §4

[12] = test system: Pseudomonas aeruginosa clinical isolate 48,458
Description: as §1, §2, §3, §4

[13] = test system: Pseudomonas aeruginosa clinical isolate 48,526
Description: as §1, §2, §3, §4

[14] = test system: Staphylococcus aureus clinical isolate 43,062
Description: as §1, §2, §3, §4

[15] = test system: Staphylococcus aureus clinical isolate 48,575
Description: as §1, §2, §3, §4

[16] = test system: Staphylococcus aureus clinical isolate 48,577
Description: as §1, §2, §3, §4

[17] = test system: Staphylococcus aureus clinical isolate 52,013
Description: as §1, §2, §3, §4

- MIC50 ([1]; clinical isolate 1,040, 24 h): >100 µM
- MIC50 ([2]; clinical isolate 1,225, 24 h): >100 µM
- MIC50 ([3]; clinical isolate 1,461, 24 h): >100 µM
- MIC50 ([4]; clinical isolate 1,462, 24 h): 49.8 µM (≈ 109 µg/mL)
- MIC50 ([5]; clinical isolate 550, 24 h): >100 µM
- MIC50 ([6]; clinical isolate 50,181, 24 h): 6.6 µM (≈ 14.5 µg/mL)
- MIC50 ([7]; clinical isolate 50,424, 24 h): 5.8 µM (≈ 12.7 µg/mL)
- MIC50 ([8]; clinical isolate 51,009, 24 h): 5.6 µM (≈ 12.3 µg/mL)
- MIC50 ([9]; clinical isolate 51,048, 24 h): 5.7 µM (≈ 12.5 µg/mL)
- MIC50 ([10]; clinical isolate 47,661, 24 h): 13.4 µM (≈ 29.4 µg/mL)
- MIC50 ([11]; clinical isolate 48,221, 24 h): 64.2 µM (≈ 141 µg/mL)
- MIC50 ([12]; clinical isolate 48,458, 24 h): 75.0 µM (≈ 165 µg/mL)
- MIC50 ([13]; clinical isolate 48,526, 24 h): 36.3 µM (≈ 79.7 µg/mL)
- MIC50 ([14]; clinical isolate 43,062, 24 h): 13.5 µM (≈ 29.7 µg/mL)
- MIC50 ([15]; clinical isolate 48,575, 24 h): 13.4 µM (≈ 29.4 µg/mL)
- MIC50 ([16]; clinical isolate 48,577, 24 h): 12.9 µM (≈ 28.3 µg/mL)
- MIC50 ([17]; clinical isolate 52,013, 24 h): 12.6 µM (≈ 27.7 µg/mL)
SMILES: N=C(N)NCCC[C@H](NC(=O)[C@H](Cc1c[nH]c2ccccc12)NC(=O)[C@H](CCC(N)=O)NC(=O)[C@H](Cc1c[nH]c2ccccc12)NC(=O)[C@H](CCCNC(=N)N)NC(=O)[C@@H](N)CCCNC(=N)N)C(=O)NCCCC[C@H](NC(=O)[C@H](CCCNC(=N)N)NC(=O)[C@H](Cc1c[nH]c2ccccc12)NC(=O)[C@H](CCC(N)=O)NC(=O)[C@H](Cc1c[nH]c2ccccc12)NC(=O)[C@H](CCCNC(=N)N)NC(=O)[C@@H](N)CCCNC(=N)N)C(=O)NCCCCCC(N)=O [LfcinB (20–25)2] (I: H-RRWQWRK[Ahx]-NH2 / II: H-RRWQWR; amide I:7-II:C; N-terminus assumed)
- MBC ([1]; clinical isolate 1,040, 18 h): >100 µM
- MBC ([2]; clinical isolate 1,225, 18 h): >100 µM
- MBC ([3]; clinical isolate 1,461, 18 h): >100 µM
- MBC ([4]; clinical isolate 1,462, 18 h): >100 µM
- MBC ([5]; clinical isolate 550, 18 h): >100 µM
- MBC ([6]; clinical isolate 50,181, 18 h): 100.0 µM (≈ 220 µg/mL)
- MBC ([7]; clinical isolate 50,424, 18 h): >100 µM
- MBC ([8]; clinical isolate 51,009, 18 h): 25.0 µM (≈ 54.9 µg/mL)
- MBC ([9]; clinical isolate 51,048, 18 h): 100.0 µM (≈ 220 µg/mL)
- MBC ([10]; clinical isolate 47,661, 18 h): >100 µM
- MBC ([11]; clinical isolate 48,221, 18 h): >100 µM
- MBC ([12]; clinical isolate 48,458, 18 h): >100 µM
- MBC ([13]; clinical isolate 48,526, 18 h): >100 µM
- MBC ([14]; clinical isolate 43,062, 18 h): 50.0 µM (≈ 110 µg/mL)
- MBC ([15]; clinical isolate 48,575, 18 h): 25.0 µM (≈ 54.9 µg/mL)
- MBC ([16]; clinical isolate 48,577, 18 h): 50.0 µM (≈ 110 µg/mL)
- MBC ([17]; clinical isolate 52,013, 18 h): 25.0 µM (≈ 54.9 µg/mL)

Source: publication PMC5840262, “Design, Synthesis and Evaluation of Branched RRWQWR-Based Peptides as Antibacterial Agents Against Clinically Relevant Gram-Positive and Gram-Negative Pathogens” (Frontiers in Microbiology, 2018)
